One data set has as its target EphA2 (Homo sapiens, UniProt P29317). The data set can be described thus: Phosphorylated-EphA2 sandwich ELISA in PC3 cell lysates. It counts as cell-based. Further details: their known ability to naturally express EphA2; endogenous in cells; host or cells: PC3 (A5). To be noted: PC3 cells. As for the experimental part: (§1) Cells were seeded in 12-well plates at concentration of 10^5cells/ml in complete medium until they reached ∼40% confluence and serum starved overnight. The day after cells were treated with compounds under study, vehicle or standard drug, stimulated with the proper agonist, rinsed with sterile PBS and solubilized in lysis buffer. The lysates were resuspended and rocked at 4°C for 30 minutes and then centrifuged at 14000 xg for 5 minutes. The protein content of supernatant was measured with BCA protein assay kit (Thermo scientific), standardized to 200 µg/ml and transferred into a clean test tube ready to be used.
(§2) EphA2-, EphB4- and EGFR-phosphorylation were measured in cell lysates using DuoSet®IC Sandwich ELISA (RnD Systems, #DYC4056, #DYC4057 and #DYC1095, respectively) following manufacturer's protocol. […] The day after wells were washed and blocked for 1 hour at room temperature. After that, wells were washed and 100 µl/well of lysates were added at room temperature for 2 hours; wells were washed and incubated with Detection Antibody at room temperature for 2 hours.
EphB4 phosphorylation was stimulated with 3 µg/ml ephrinB2-Fc, preclustered with 0.3 µg/ml IgG Fc fragment on T47D cells (G, H, I). […] Phospho-EphA2/B4 levels are relative to ephrinA1/B2-Fc+DMSO. Data are the means of at least three independent experiment ± st. err. One-way ANOVA followed by Dunnet's post test was performed comparing Fc to all other columns for Fig A, D, G and ephrinA1-Fc+DMSO to all other columns for Fig B,C,E, F, H, I. *, p<0.05, **, p<0.01.
For orientation: ELISA stands for enzyme-linked immunosorbent assay.

For data set [1], the target named is T1, EGFR (Homo sapiens, UniProt P00533). Nature of the data set: Phosphorylated-EGFR sandwich ELISA in PC3 cells. It counts as cell-based. To be noted: 100 µM, 30 ng/ml EGF. As for the experimental part: as §1, §2
T1 sequence (P00533 25-1210): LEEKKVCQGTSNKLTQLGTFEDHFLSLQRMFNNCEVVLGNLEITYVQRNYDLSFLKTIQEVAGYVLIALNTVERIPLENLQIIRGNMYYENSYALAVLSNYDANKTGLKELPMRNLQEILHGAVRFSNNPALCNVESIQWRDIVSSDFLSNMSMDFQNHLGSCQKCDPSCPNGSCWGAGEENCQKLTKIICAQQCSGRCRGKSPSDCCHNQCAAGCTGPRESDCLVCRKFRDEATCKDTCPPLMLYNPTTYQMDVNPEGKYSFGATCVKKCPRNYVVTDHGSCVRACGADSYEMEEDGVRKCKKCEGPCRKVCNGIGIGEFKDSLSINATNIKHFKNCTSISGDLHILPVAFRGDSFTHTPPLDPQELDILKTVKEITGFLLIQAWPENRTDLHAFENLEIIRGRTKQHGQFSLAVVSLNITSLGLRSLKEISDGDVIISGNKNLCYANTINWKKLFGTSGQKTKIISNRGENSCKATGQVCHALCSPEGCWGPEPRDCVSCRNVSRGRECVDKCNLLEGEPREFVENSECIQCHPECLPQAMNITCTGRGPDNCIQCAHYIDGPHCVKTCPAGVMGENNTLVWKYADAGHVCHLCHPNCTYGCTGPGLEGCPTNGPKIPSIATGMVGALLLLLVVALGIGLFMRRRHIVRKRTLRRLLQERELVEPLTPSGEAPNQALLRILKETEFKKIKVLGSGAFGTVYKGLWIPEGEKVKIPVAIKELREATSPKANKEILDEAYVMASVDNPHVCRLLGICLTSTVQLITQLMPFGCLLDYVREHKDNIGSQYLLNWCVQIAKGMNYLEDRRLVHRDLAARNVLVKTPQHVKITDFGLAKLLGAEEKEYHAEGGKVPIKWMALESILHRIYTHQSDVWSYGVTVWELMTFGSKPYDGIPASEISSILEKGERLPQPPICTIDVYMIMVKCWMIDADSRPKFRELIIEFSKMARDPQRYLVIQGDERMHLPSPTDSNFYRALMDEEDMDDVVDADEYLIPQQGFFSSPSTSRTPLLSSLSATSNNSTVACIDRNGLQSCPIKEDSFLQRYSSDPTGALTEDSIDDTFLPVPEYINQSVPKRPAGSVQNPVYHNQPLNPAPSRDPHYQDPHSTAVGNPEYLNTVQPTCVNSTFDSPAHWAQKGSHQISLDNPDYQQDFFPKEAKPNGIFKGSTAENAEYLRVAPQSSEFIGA
(§3) A, B) EGFR phosphorylation was induced by 30 ng/ml and 10 ng/ml EGF on PC3 (A) and HT29 (B) cells, respectively. […] Data are the means of two experiments ± st. err.

The target of another data set is T2, EphA2-ephrinA1 binding (Mus musculus, UniProt Q03145).
T2 construct: we immobilized EphA2-Fc- ectodomain on proper ELISA plates; purchased R&D systems 639-A2 (EphA2-Fc); BT602 (biotinylated ephrinA1-Fc)
T2 sequence (Q03145 26-538 limits assumed): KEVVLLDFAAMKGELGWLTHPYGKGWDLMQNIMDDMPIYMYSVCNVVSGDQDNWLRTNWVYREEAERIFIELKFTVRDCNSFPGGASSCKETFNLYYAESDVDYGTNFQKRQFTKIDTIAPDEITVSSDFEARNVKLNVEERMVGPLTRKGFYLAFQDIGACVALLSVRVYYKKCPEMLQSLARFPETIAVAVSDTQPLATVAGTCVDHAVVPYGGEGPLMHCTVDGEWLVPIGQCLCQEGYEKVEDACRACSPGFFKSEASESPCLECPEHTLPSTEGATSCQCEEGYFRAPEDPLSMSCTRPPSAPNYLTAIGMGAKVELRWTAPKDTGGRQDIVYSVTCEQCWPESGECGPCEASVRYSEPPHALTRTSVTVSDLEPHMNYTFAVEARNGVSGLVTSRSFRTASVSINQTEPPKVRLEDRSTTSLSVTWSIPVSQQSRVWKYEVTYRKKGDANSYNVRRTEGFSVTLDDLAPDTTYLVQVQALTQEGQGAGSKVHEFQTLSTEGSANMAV
The data set can be described thus: ELISA EphA2-ephrinA1 binding (displacement and saturation). Conditions: 200 µM for 1 hour, some wells washed before adding 50 ng/ml ephrinA1-Fc.

For a further data set, the system named is PC3 cells. Nature of the data set: PC3 cell rounding assay. In kind it is cell-based, human. Conditions: for inhibition of ephrinA1-Fc induced PC3 cell rounding: 0.5 µg/ml ephrinA1-Fc, 30 minutes. As for the experimental part: PC3 cells were grown on 12-well culture plates and starved overnight in Ham-F12 medium with 0.5% FBS. DMSO (final concentration 0.25%) or compounds were incubated for 20 min, before stimulation with 0.5 µg/ml ephrinA1-Fc or Fc for 30 minutes. During this time cells were observed and pictures were taken from the same field, before and after incubation, under a microscope (Leica, DM IL). Cell rounding was evaluated using ImageJ program.
Cell images were collected from the same field at time 0 and 30 minutes using a digital camera mounted on a Leica DM IL microscope. […] Cells, which rounded their shape and having an area less than 20% of the initial value, were scored as retracting. Data are the means of at least three independent experiments ± st. err. One-way ANOVA followed by Dunnet's post test was performed comparing ephrinA1-Fc+DMSO to all other columns. *, p<0.05, **,p<0.01.

A further data set has as its system PC3, HT29 and T47D cells. The data set can be described thus: MTT cell viability assay. It counts as cell-based, human. Conditions: concentrations studied in phosphorylation studies; 2 hours incubation. As for the experimental part: Cell viability was evaluated using the MTT colorimetric assay. Cells were plated in 96-well plates at a density of 10^5cells/ml and the day after treated with compounds or 0.5% DMSO for 2, 24, 48, or 72 hours. MTT was added at the final concentration of 1 mg/ml and incubated for 2 hours. The resulting formazan crystals were washed with PBS 100 µl/well and then solubilized with DMSO 200 µl/well. The absorbance was measured at 550 nm using an ELISA plate reader and the results were expressed as the ratio between absorbance of the cell treated with the compounds and untreated cells.
Supplementary file pone.0018128.s003.pdf: Figure S2 Cytotoxicity of bile acids on PC3, HT29 and T47D cells after 2 hours of incubation with the indicated compounds. Data are means±SEM. (PDF) Click here for additional data file.

Data set [2] addresses T1, EGFR. Nature of the data set: Phosphorylated-EGFR sandwich ELISA in HT29 cells. It counts as cell-based. To be noted: 100 µM, 10 ng/ml EGF. As for the experimental part: as §1, §2, §3

The structures appear in SMILES notation.

Data on 1 compound can be found in PMC3068151 (PLoS ONE, 2011).

Chain of EphA2 (P29317 24-976): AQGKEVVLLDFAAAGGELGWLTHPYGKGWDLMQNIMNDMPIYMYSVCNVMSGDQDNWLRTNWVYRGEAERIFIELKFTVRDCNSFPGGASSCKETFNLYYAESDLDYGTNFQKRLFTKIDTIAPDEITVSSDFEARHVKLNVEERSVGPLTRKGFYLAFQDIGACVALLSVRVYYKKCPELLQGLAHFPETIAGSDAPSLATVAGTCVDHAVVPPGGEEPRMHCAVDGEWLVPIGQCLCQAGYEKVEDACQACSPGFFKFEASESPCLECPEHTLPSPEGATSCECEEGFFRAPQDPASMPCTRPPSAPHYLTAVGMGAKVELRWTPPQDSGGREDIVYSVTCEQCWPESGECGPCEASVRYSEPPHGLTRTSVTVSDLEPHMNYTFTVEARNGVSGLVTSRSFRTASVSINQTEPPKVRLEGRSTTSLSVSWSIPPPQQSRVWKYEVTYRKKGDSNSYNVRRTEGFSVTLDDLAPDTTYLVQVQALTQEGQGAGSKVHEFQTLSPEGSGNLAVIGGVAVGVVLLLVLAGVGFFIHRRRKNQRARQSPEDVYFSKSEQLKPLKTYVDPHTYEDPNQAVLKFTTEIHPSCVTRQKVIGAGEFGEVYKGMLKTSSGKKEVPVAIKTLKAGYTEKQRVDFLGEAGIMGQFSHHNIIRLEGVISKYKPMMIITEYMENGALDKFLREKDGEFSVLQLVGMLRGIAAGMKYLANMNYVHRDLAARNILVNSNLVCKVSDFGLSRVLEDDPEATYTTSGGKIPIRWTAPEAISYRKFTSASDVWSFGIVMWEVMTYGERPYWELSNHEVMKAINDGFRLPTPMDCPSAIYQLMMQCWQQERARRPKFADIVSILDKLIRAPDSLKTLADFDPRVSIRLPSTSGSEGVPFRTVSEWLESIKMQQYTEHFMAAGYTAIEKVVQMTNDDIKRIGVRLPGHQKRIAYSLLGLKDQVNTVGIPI

On to `C[C@H](CCC(=O)O)[C@H]1CC[C@H]2[C@@H]3CC[C@@H]4C[C@H](O)CC[C@]4(C)[C@H]3CC[C@]12C` [LCA, lithocholic acid], for which the “inhibition of EphA2 phosphorylation” value on EphA2 (10 µM) is “subthreshold”; against EphA2 (100 µM) it was “inhibiting completely”. Also, the “effect on EGF-induced EGFR phosphorylation” value on EGFR [1] and on EGFR [2] was “completely inactive” in each case. Moreover, at EphA2-ephrinA1 binding, the “reversibility of binding (displacement with or without washing)” value is on record as “The displacement was detected only where the washing was not performed”. The “inhibition of ephrinA1-Fc induced PC3 cell rounding” value in the data set on PC3 cells (10 µM) was “inactive”; in the data set with PC3 cells (100 µM) it was “blocked cell rounding”. Besides, the “changes in PC3 cell morphology by compound alone” value in the data set on PC3 cells (incubated with Fc for 30 minutes) is on record as “Neither DMSO 0.25% nor LCA alone induced changes in cell morphology”. Besides, in the data set on PC3, HT29 and T47D cells, the “toxicity (MTT)” value is on record as “devoid of any toxicity”.
